# Structures can show the parent of a compound that is named as a salt.
# Experiments:
# Streptococcus mitis = experiment: Substrate hydrolysis on Columbia agar; type: cell-based; conditions: Streptococcus mitis NCTC 12261; 300 mg/l; 18 hours
# Streptococcus pneumoniae = experiment: Substrate hydrolysis on Columbia agar; type: cell-based; conditions: Streptococcus pneumoniae NCTC 7465; 300 mg/l; 18 hours
# Aeromonas sobria = experiment: Substrate hydrolysis on Columbia agar; type: cell-based; conditions: Aeromonas sobria NCTC 11215; 300 mg/l; 18 hours
# Staphylococcus aureus = experiment: Substrate hydrolysis on Columbia agar; type: cell-based; conditions: 300 mg/l, 18 hours
# Enterococcus durans = experiment: Substrate hydrolysis on Columbia agar; type: cell-based; conditions: Enterococcus durans NCTC 8307; 300 mg/l; 18 hours
# Enterococcus raffinosis = experiment: Substrate hydrolysis on Columbia agar; type: cell-based; conditions: Enterococcus raffinosis NCTC 13192; 300 mg/l; 18 hours
# Streptococcus oralis = experiment: Substrate hydrolysis on Columbia agar; type: cell-based; conditions: Streptococcus oralis NCTC11427; 300 mg/l; 18 hours
# Bacillus cereus = experiment: Substrate hydrolysis on Columbia agar; type: cell-based; conditions: Bacillus cereus NCTC; 300 mg/l; 18 hours
# Gram negative bacteria = experiment: Substrate hydrolysis on Columbia agar, summary of screen; type: cell-based
# [1] = system: Streptococcus constellatus; experiment: Substrate hydrolysis on Columbia agar; type: cell-based; conditions: Streptococcus constellatus NCTC 11325; 300 mg/l; 18 hours
# Enterococcus faecium = experiment: Substrate hydrolysis on Columbia agar; type: cell-based; conditions: 300 mg/l, 18 hours
# C. diphtheriae = experiment: Substrate hydrolysis on Columbia agar; type: cell-based, Corynebacterium diphtheriae; conditions: 300 mg/l, 18 hours
# Shigella dysenteriae = experiment: Substrate hydrolysis on Columbia agar; type: cell-based; conditions: 300 mg/l, 18 hours
# Aeromonas hydrophila = experiment: Substrate hydrolysis on Columbia agar; type: cell-based; set-up: key to the marks not given beside the values; conditions: Aeromonas hydrophila NCTC 8049; 300 mg/l; 18 hours
# C. diversus = experiment: Substrate hydrolysis on Columbia agar; type: cell-based; conditions: 300 mg/l, 18 hours
# Vibrio hollisae = experiment: Substrate hydrolysis on Columbia agar; type: cell-based; conditions: Vibrio hollisae NCTC 11640; 300 mg/l; 18 hours
# [2] = system: Arcanobacterium haemolyticus; experiment: Substrate hydrolysis on Columbia agar; type: cell-based; conditions: Arcanobacterium haemolyticus NCTC 52; 300 mg/l; 18 hours
# Streptococcus gordonii = experiment: Substrate hydrolysis on Columbia agar; type: cell-based; conditions: Streptococcus gordonii NCTC 7865; 300 mg/l; 18 hours
# Salmonella hadar = experiment: Substrate hydrolysis on Columbia agar; type: cell-based; conditions: Salmonella hadar SAX 57; 300 mg/l; 18 hours
# Hafnia alvei = experiment: Substrate hydrolysis on Columbia agar; type: cell-based; conditions: 300 mg/l, 18 hours
# P. aeruginosa = experiment: Substrate hydrolysis on Columbia agar; type: cell-based; conditions: 300 mg/l, 18 hours
# Salmonella typhi = experiment: Substrate hydrolysis on Columbia agar; type: cell-based; conditions: Salmonella typhi NCTC 8385; 300 mg/l; 18 hours
# Listeria ivanovii = experiment: Substrate hydrolysis on Columbia agar; type: cell-based; conditions: Listeria ivanovii PHLS wild; 300 mg/l; 18 hours
# E. aerogenes = experiment: Substrate hydrolysis on Columbia agar; type: cell-based; conditions: 300 mg/l, 18 hours
# Enterococcus faecalis = experiment: Substrate hydrolysis on Columbia agar; type: cell-based; conditions: 300 mg/l, 18 hours
# Serratia marcescens = experiment: Substrate hydrolysis on Columbia agar; type: cell-based; conditions: Serratia marcescens NCTC 10211; 300 mg/l; 18 hours
# Streptococcus agalactiae = experiment: Substrate hydrolysis on Columbia agar; type: cell-based; conditions: Streptococcus agalactiae NCTC 8181; 300 mg/l; 18 hours
# Enterococcus casseflavus = experiment: Substrate hydrolysis on Columbia agar; type: cell-based; conditions: Enterococcus casseflavus NCTC 12361; 300 mg/l; 18 hours
# [3] = system: Haemolytic streptococcus G; experiment: Substrate hydrolysis on Columbia agar; type: cell-based; conditions: 300 mg/l, 18 hours
# Y. enterocolitica = experiment: Substrate hydrolysis on Columbia agar; type: cell-based; conditions: 300 mg/l, 18 hours
# C. freundii = experiment: Substrate hydrolysis on Columbia agar; type: cell-based; conditions: 300 mg/l, 18 hours
smiles,measurement,setting,value
"O=c1cc(-c2ccc(OC3OC(CO)C(O)C3O)c(O)c2)oc2ccccc12 [DHF-riboside, 3′,4′-dihydroxyflavone-4′-β-D-ribofuranoside Sodium Salt]",Hydrolysis by Gram positive organisms,Streptococcus mitis,−
same,Hydrolysis by Gram positive organisms,Streptococcus pneumoniae,−
same,Hydrolysis by Gram negative bacteria,Aeromonas sobria,0
same,Hydrolysis by Gram positive organisms,Staphylococcus aureus; Staphylococcus aureus 1,++
same,Hydrolysis by Gram positive organisms,Staphylococcus aureus; Staphylococcus aureus 2,++
same,Hydrolysis by Gram positive organisms,Staphylococcus aureus; Staphylococcus aureus 3,++
same,Hydrolysis by Gram positive organisms,Staphylococcus aureus; Staphylococcus aureus 4,++
same,Hydrolysis by Gram positive organisms,Staphylococcus aureus; Staphylococcus aureus 5,++
same,Hydrolysis by Gram positive organisms,Enterococcus durans,−
same,Hydrolysis by Gram positive organisms,Enterococcus raffinosis,+
same,Hydrolysis by Gram positive organisms,Streptococcus oralis,−
same,Hydrolysis by Gram positive organisms,Bacillus cereus,−
same,Gram negative bacteria tested that hydrolysed the substrate,"Gram negative bacteria; of 120 Gram negative bacteria tested, 300 mg/l, 18 hours",68.3%
same,colouration and diffusion of positive strains,"Gram negative bacteria; positive Gram negative strains, agar",clearly visible black chelate which remained restricted to bacterial colonies without diffusion into the surrounding agar
same,Hydrolysis by Gram positive organisms,[1],−
same,Hydrolysis by Gram positive organisms,Enterococcus faecium; Enterococcus faecium 1,−
same,Hydrolysis by Gram positive organisms,Enterococcus faecium; Enterococcus faecium 2,−
same,Hydrolysis by Gram positive organisms,Enterococcus faecium; Enterococcus faecium 3,−
same,Hydrolysis by Gram positive organisms,Enterococcus faecium; Enterococcus faecium 4,+
same,Hydrolysis by Gram positive organisms,Enterococcus faecium; Enterococcus faecium 5,−
same,Hydrolysis by Gram positive organisms,Enterococcus faecium; Enterococcus faecium 6,+
same,Hydrolysis by Gram positive organisms,Enterococcus faecium; Enterococcus faecium 7,−
same,Hydrolysis by Gram positive organisms,Enterococcus faecium; Enterococcus faecium 121285 - wild ′99,−
same,Hydrolysis by Gram positive organisms,C. diphtheriae; C. diphtheriae NCTC 3987,+
same,Hydrolysis by Gram positive organisms,C. diphtheriae; C. diphtheriae NCTC 10356,++
same,Hydrolysis by Gram positive organisms,C. diphtheriae; C. diphtheriae NCTC 11397,++
same,Hydrolysis by Gram positive organisms,C. diphtheriae; Corynebacterium diphtheria NEQAS,++
same,Hydrolysis by Gram negative bacteria,Shigella dysenteriae; Shigella dysenteriae (type 2) NCTC 9952,++
same,Hydrolysis by Gram negative bacteria,Shigella dysenteriae; Shigella dysenteriae (type 3) NCTC 9720,++
same,Hydrolysis by Gram negative bacteria,Shigella dysenteriae; Shigella dysenteriae (type 4) NCTC 9759,++
same,Hydrolysis by Gram negative bacteria,Aeromonas hydrophila,++
same,Hydrolysis by Gram negative bacteria,C. diversus; C. diversus CDI 1,++
same,Hydrolysis by Gram negative bacteria,C. diversus; C. diversus CDI 2,++
same,Hydrolysis by Gram negative bacteria,Vibrio hollisae,−
same,Hydrolysis by Gram positive organisms,[2],+
same,Hydrolysis by Gram positive organisms,Streptococcus gordonii,−
same,Hydrolysis by Gram negative bacteria,Salmonella hadar,++
same,Hydrolysis by Gram negative bacteria,Hafnia alvei; Hafnia alvei HAL 2,++
same,Hydrolysis by Gram negative bacteria,Hafnia alvei; Hafnia alvei NCTC 8105,++
same,Hydrolysis by Gram negative bacteria,P. aeruginosa; P. aeruginosa ATCC 10145,+
same,Hydrolysis by Gram negative bacteria,P. aeruginosa; P. aeruginosa NCTC 10662,+
same,Hydrolysis by Gram negative bacteria,Salmonella typhi,++
same,Hydrolysis by Gram positive organisms,Listeria ivanovii,+
same,Hydrolysis by Gram negative bacteria,E. aerogenes; E. aerogenes EAE 1,++
same,Hydrolysis by Gram negative bacteria,E. aerogenes; E. aerogenes NCIMB 10102,++
same,Hydrolysis by Gram positive organisms,Enterococcus faecalis; Enterococcus faecalis 1,−
same,Hydrolysis by Gram positive organisms,Enterococcus faecalis; Enterococcus faecalis 2,+
same,Hydrolysis by Gram positive organisms,Enterococcus faecalis; Enterococcus faecalis 3,+
same,Hydrolysis by Gram positive organisms,Enterococcus faecalis; Enterococcus faecalis 4,+
same,Hydrolysis by Gram positive organisms,Enterococcus faecalis; Enterococcus faecalis 5,+
same,Hydrolysis by Gram positive organisms,Enterococcus faecalis; Enterococcus faecalis 6,+
same,Hydrolysis by Gram positive organisms,Enterococcus faecalis; Enterococcus faecalis 7,−
same,Hydrolysis by Gram negative bacteria,Serratia marcescens,++
same,Hydrolysis by Gram positive organisms,Streptococcus agalactiae,−
same,Hydrolysis by Gram positive organisms,Enterococcus casseflavus,−
same,Hydrolysis by Gram positive organisms,[3]; Haemolytic streptococcus G 1,−
same,Hydrolysis by Gram positive organisms,[3]; Haemolytic streptococcus G 2,−
same,Hydrolysis by Gram positive organisms,[3]; Haemolytic streptococcus G 3,+
same,Hydrolysis by Gram negative bacteria,Y. enterocolitica; Y. enterocolitica NCTC 10460,−
same,Hydrolysis by Gram negative bacteria,Y. enterocolitica; Y. enterocolitica NCTC 11176,−
same,Hydrolysis by Gram negative bacteria,Y. enterocolitica; Y. enterocolitica NCTC 11177,−
same,Hydrolysis by Gram negative bacteria,Y. enterocolitica; Y. enterocolitica NCTC 11600,−
same,Hydrolysis by Gram negative bacteria,C. freundii; C. freundii CFR 1,++
same,Hydrolysis by Gram negative bacteria,C. freundii; C. freundii CFR 2,++
same,Hydrolysis by Gram negative bacteria,C. freundii; C. freundii CFR 3,++
same,Hydrolysis by Gram negative bacteria,C. freundii; C. freundii CFR 4,++
same,Hydrolysis by Gram negative bacteria,C. freundii; C. freundii NCTC 9750,++
